Experiments:
[1] = tested on: abdominal aorta aneurysm formation; experiment: Calcium chloride application-induced mouse aneurysm model; type: in vivo
Method: The mouse aneurysm model was induced by peri-aortic application of calcium chloride to 8-week-old male C57BL/6J mice.
2-DG was intraperitoneally administered at 100 mg/kg body weight or 1 g/kg body weight/day to the mouse aneurysm model for 28 days. After 28 days, the abdominal aorta was removed and then the diameter thereof was measured. An abdominal aorta was removed similarly from mice to which saline had been administered instead of 2-DG after application of calcium chloride as a negative control, and a mouse that had been treated in the same manner except for application of sodium chloride instead of calcium chloride as a control, and then the diameter of each thereof was measured.
Panel B is a graph showing the diameter (mm) of the abdominal aorta removed from each group.

[2] = tested on: MMP-9; experiment: MMP-9 activity in ex vivo culture of human AAA wall, zymogram; type: cell-based; conditions: FIG. 2 D
Method: (§1) The human AAA wall was homogenized, the obtained samples were evaluated for GLUT-3 protein expression by Western blot, and MMP-9 activity was determined by zymography. Western blot analysis was conducted by subjecting 10 μg of the extracted protein (quantified) to SDS-polyacrylamide gel electrophoresis for separation, subsequently transferring and immobilizing the resultant onto a membrane to prepare a blot, carrying out a reaction of the blot with an anti-GLUT-3 antibody for 1 hour and then with a secondary antibody, and then detecting signals. Meanwhile, zymogram analysis was conducted by subjecting 5 μg of the extracted protein (quantified) to electrophoresis on a zymogram gel plate to separate the protein. The method employed thereafter was carried out according to the instructions of a kit (Invitrogen). After 24 hours of a reaction at 37° C., zymogram gel was stained overnight with a Coomassie blue solution and then destained, and then enzyme activity was detected.
(§2) In this example, 2-DG, cytochalasin, or phloretin was administered to evaluate the suppression of MMP-9 activity in cultured macrophages or the human AAA wall, using a zymogram used in Example 1.
In the meantime, U937 cells were pretreated with a glucose transporter inhibitor (cytochalasin or phloretin), and then stimulated with 10 nmol/L PMA. […]

[3] = tested on: SIRT1 gene; experiment: SIRT1 gene expression in cultured macrophages; type: cell-based; conditions: U937 cells pretreated with 2 mg/mL, then PMA; 24 hours after stimulation; FIG. 6 C
Method: In this example, the effect of 2-DG was evaluated on the expression of SIRT1 gene in cultured macrophages. […] Gene expression was evaluated at the mRNA level in a manner similar to that used in Example 4.
In the meantime, 2-DG (2 mg/mL) was pretreated to the U937 cell culture solution, and stimulated them with PMA. As control cells, monocytic cells (U937) to which neither phorbol ester nor 2-DG had been administered and monocytic cells (U937) to which only phorbol ester had been administered were used. At 24 hours after stimulation, SIRT1 gene expression levels were compared, and the results are shown in panel C of FIG. 6.

[4] = tested on: MMP-9; experiment: PMA-induced MMP-9 activity in cultured macrophages (U937), gelatin zymogram; type: cell-based; conditions: U937 cells pretreated with substance, then stimulated with 10 nmol/L PMA, FIG. 2 A-C
Method: as §1, §2
In the meantime, U937 cells were pretreated with a glucose transporter inhibitor (cytochalasin or phloretin), and then stimulated with 10 nmol/L PMA. In addition, U937 cells were pretreated with 2-DG and then stimulated with 10 nmol/L PMA. Furthermore, 2-DG was administered to the ex vivo culture of human AAA wall.
In panels A to D, “MMP-9 (L)” denotes latent MMP-9 activity and “MMP-9 (A)” denotes active MMP-9 activity. In addition, in panel D, “MMP-2 (L)” denotes latent MMP-2 activity and “MMP-2 (A)” denotes active MMP-2 activity. Moreover, in panel D, “control” denotes an aqueous solvent not containing 2-DG.

[5] = tested on: abdominal aorta aneurysm formation; experiment: Angiotensin II-induced apolipoprotein E knockout mouse aneurysm model; type: in vivo; conditions: angiotensin II-induced apolipoprotein E knockout mice; 1 g/kg body weight/day intraperitoneally for 28 days; FIG. 4
Method: Each angiotensin II-induced apolipoprotein E knockout mouse was produced by subcutaneous administration of a pressor peptide, angiotensin II (1000 ng/kg/min), to a 12-week-old apolipoprotein E-deficient mouse via osmotic pump for 28 days. After osmotic pump implantation, 2-DG was intraperitoneally administered at 1 g/kg body weight/day for 28 days (the number of mice (n)=14). After 28 days of administration, the abdominal aorta was removed and then the aortic diameter was measured. As negative control, the abdominal aorta was similarly removed from mice (the number of mice (n)=14) produced by administration of saline instead of 2-DG, and then the aortic diameter was measured.

[6] = tested on: MMP-1, CCL-2, TNF-α, MMP-9, CCL-8 and IL-6 gene expression; experiment: Expression of atherosclerosis/aneurysm-related genes in cultured macrophages by DNA microarray; type: cell-based; conditions: U937 cells pretreated, then 10 nmol/L PMA, 24 hours after stimulation, FIG. 5
Method: In this example, the effects of 2-DG on gene expressions associated with development of atherosclerosis and/or aneurysm in cultured macrophages were evaluated by DNA microarray (Agilent). The evaluated genes associated with atherosclerosis induction- and/or aneurysm formation were MMP-1 and MMP-9, chemokines (CCL-2 and CCL-8) and inflammatory cytokines (TNF-α and IL-6) (Libby P., Inflammation in atherosclerosis, Nature 2002, 420 (6917): 868-874 and Tung W S, Lee J K, Thompson R W., Simultaneous analysis of 1176 gene products in normal human aorta and abdominal aortic aneurysms using a membrane-based complementary DNA expression array. J Vasc Surg. 2001, 34(1): 143-150). Monocytic cells (U937) were stimulated with 10 nmol/L phorbol ester (PMA) for differentiation to macrophages. Some U937 cells were pretreated with 2-DG and then stimulated with 10 nmol/L PMA. As control cells, monocytic cells (U937) to which neither phorbol ester nor 2-DG had been administered were used. At 24 hours after stimulation, cells were collected, RNA was extracted, cDNA was constructed from RNA, and then the resultant was arrayed. The results of arraying were analyzed by GeneSpring GX10 software, so that the expression levels of the atherosclerosis induction- and/or aneurysm-related genes of each cell sample were evaluated. […]

Row | Compound | expansion of aortic diameter following application of calcium chloride ([1]; C57BL/6J mice, 100 mg/kg or 1 g/kg body weight/day intraperitoneally for 28 days, FIG. 3) | vascular wall structure (tunica media layers, cytoprotective effect) ([1]; calcium chloride mouse aneurysm model, mice treated with 2-DG) | MMP-9 activity in ex vivo culture of the human AAA wall [2] | SIRT1 gene expression level [3] | PMA-induced MMP-9 activity [4] | aneurysm formation (aortic diameter) [5] | expression levels of atherosclerosis induction- and/or aneurysm-related genes (MMP-1, CCL-2, TNF-α, MMP-9, CCL-8, IL-6), mRNA [6]
1 | O=CC[C@@H](O)[C@H](O)[C@H](O)CO [2-DG, 2-deoxyglucose] | suppressed | maintained the vascular wall structure | suppressed | significantly increased | decreased | suppressed | decreased
2 | O=C(CCc1ccc(O)cc1)c1c(O)cc(O)cc1O [phloretin] |  |  |  |  | decreased |  | 
3 | cytochalasin |  |  |  |  | decreased |  | 

Source: patent US20130211059A1, “COMPOSITION SUPPRESSING MATRIX-METALLOPROTEINASE ACTIVITY” (University of Miyazaki, priority 2010, published 2013)
